Test results as given in patent publication US20210298306A1, “PESTICIDALLY ACTIVE AZOLE-AMIDE COMPOUNDS” (SYNGENTA PARTICIPATIONS AG, priority 2018, published 2021).

Tests used:
Assay type in all cases: in vivo
Myzus persicae [1] = test: Example B6: Myzus persicae (green peach aphid), intrinsic activity, sucrose solution, 24-well; details: 120 h, test rate 12 ppm, 5 days after infestation
From the text: Example B6: Myzus persicae (Green Peach Aphid). Intrinsic Activity
Test compounds prepared from 10,000 ppm DMSO stock solutions were applied by pipette into 24-well microtiter plates and mixed with sucrose solution. The plates were closed with a stretched Parafilm. A plastic stencil with 24 holes was placed onto the plate and infested pea seedlings were placed directly on the Parafilm. The infested plate was closed with a gel blotting paper and another plastic stencil and then turned upside down. The samples were assessed for mortality 5 days after infestation.

Thrips tabaci = test: Example B9: Thrips tabaci (onion thrips), feeding/contact activity, sunflower leaf discs; details: foliar, 144 h; application rate 200 ppm; 6 days after infestation; Thrips tabaci mixed ages
Description: Example B9: Thrips tabaci (Onion Thrips) Feeding/Contact Activity
Sunflower leaf discs were placed on agar in 24-well microtiter plates and sprayed with aqueous test solutions prepared from 10,000 ppm DMSO stock solutions. After drying the leaf discs were infested with a thrips population of mixed ages. The samples were assessed for mortality 6 days after infestation.

Plutella xylostella = test: Example B4: Plutella xylostella (diamond back moth), artificial diet, 24-well, eggs; details: 192 h, application rate 200 ppm, 8 days after infestation, read-out: effect in at least one of the two categories (mortality or growth inhibition)
Description: Example B4: Plutella xylostella (Diamond Back Moth)
24-well microtiter plates with artificial diet were treated with aqueous test solutions prepared from 10,000 ppm DMSO stock solutions by pipetting. After drying, Plutella eggs were pipetted through a plastic stencil onto a gel blotting paper and the plate was closed with it. The samples were assessed for mortality and growth inhibition in comparison to untreated samples 8 days after infestation.
(§1) The following compounds gave an effect of at least 80% in at least one of the two categories (mortality or growth inhibition) at an application rate of 200 ppm: […]

Spodoptera littoralis [2] = test: Example B7: Spodoptera littoralis (Egyptian cotton leaf worm), cotton leaf discs sprayed, L1 larvae; details: foliar, 72 h, application rate 200 ppm, 3 days after infestation, read-out: control in at least one of the categories (mortality, anti-feedant effect, or growth inhibition)
Description: Example B7: Spodoptera littoralis (Egyptian Cotton Leaf Worm)
Cotton leaf discs were placed onto agar in 24-well microtiter plates and sprayed with aqueous test solutions prepared from 10,000 ppm DMSO stock solutions. After drying the leaf discs were infested with five L1 larvae. The samples were assessed for mortality, anti-feeding effect, and growth inhibition in comparison to untreated samples 3 days after infestation. Control of Spodoptera littoralis by a test sample is given when at least one of the categories mortality, anti-feedant effect, and growth inhibition is higher than the untreated sample.

Diabrotica balteata = test: Example B1: Diabrotica balteata (corn root worm), maize sprouts sprayed, L2 larvae; details: 96 h, application rate 200 ppm, 4 days after infestation, read-out: effect in at least one of the two categories (mortality or growth inhibition)
Description: Example B1: Diabrotica Balteata (Corn Root Worm)
Maize sprouts placed onto an agar layer in 24-well microtiter plates were treated with aqueous test solutions prepared from 10,000 ppm DMSO stock solutions by spraying. After drying, the plates were infested with L2 larvae (6 to 10 per well). The samples were assessed for mortality and growth inhibition in comparison to untreated samples 4 days after infestation.
as §1

Spodoptera littoralis [3] = test: Example B8: Spodoptera littoralis (Egyptian cotton leaf worm), uptake by lettuce roots from agar, eggs; details: 144 h, test rate 12.5 ppm, 6 days after infestation, lettuce root uptake, read-out: effect in at least one of the three categories (mortality, anti-feeding, or growth inhibition)
From the text: Example B8: Spodoptera littoralis (Egyptian Cotton Leaf Worm)
Test compounds were applied by pipette from 10,000 ppm DMSO stock solutions into 24-well plates and mixed with agar. Lettuce seeds were placed onto the agar and the multi well plate was closed by another plate which contained also agar. After 7 days the compound was absorbed by the roots and the lettuce grew into the lid plate. The lettuce leaves were then cut off into the lid plate. Spodoptera eggs were pipetted through a plastic stencil onto a humid gel blotting paper and the lid plate was closed with it. The samples were assessed for mortality, anti-feedant effect and growth inhibition in comparison to untreated samples 6 days after infestation.
The following compounds gave an effect of at least 80% in at least one of the three categories (mortality, anti-feeding, or growth inhibition) at a test rate of 12.5 ppm: […]

Euschistus heros = test: Example B2: Euschistus heros (neotropical brown stink bug), soybean leaves sprayed, N2 nymphs; details: 120 h, application rate 200 ppm, 5 days after infestation, read-out: effect in at least one of the two categories (mortality or growth inhibition)
Description: Example B2: Euschistus heros (Neotropical Brown Stink Bug)
Soybean leaves on agar in 24-well microtiter plates were sprayed with aqueous test solutions prepared from 10,000 ppm DMSO stock solutions. After drying the leaves were infested with N2 nymphs. The samples were assessed for mortality and growth inhibition in comparison to untreated samples 5 days after infestation.
as §1

Myzus persicae [4] = test: Example B5: Myzus persicae (green peach aphid), feeding/contact activity, sunflower leaf discs; details: foliar, 144 h, application rate 200 ppm, 6 days after infestation, Myzus persicae mixed ages
Description: Example B5: Myzus persicae (Green Peach Aphid):Feeding/Contact Activity
Sunflower leaf discs were placed onto agar in a 24-well microtiter plate and sprayed with aqueous test solutions prepared from 10,000 ppm DMSO stock solutions. After drying, the leaf discs were infested with an aphid population of mixed ages. The samples were assessed for mortality 6 days after infestation.

CC(c1ncnn1-c1ncccn1)N(CC1CC1)C(=O)c1cc(OC(F)(F)C(F)F)cc(C(F)(F)F)c1 (centres unmarked) [P3, N-(cyclopropylmethyl)-N-[1-(2-pyrimidin-2-yl-1,2,4-triazol-3-yl)ethyl]-3-(1,1,2,2-tetrafluoroethoxy)-5-(trifluoromethyl)benzamide]
≥ 80%: mortality at 12 ppm (Myzus persicae [1]) | mortality at 200 ppm (Thrips tabaci) | percent effect (mortality or growth inhibition) at 200 ppm (Plutella xylostella) | percent control (mortality, anti-feedant effect or growth inhibition) at 200 ppm (Spodoptera littoralis [2]) | percent effect (mortality or growth inhibition) at 200 ppm (Diabrotica balteata) | percent effect (mortality, anti-feeding or growth inhibition) at 12.5 ppm (Spodoptera littoralis [3]) | percent effect (mortality or growth inhibition) at 200 ppm (Euschistus heros)

CC(NC(=O)c1cc(OC(F)F)cc(C(F)(F)F)c1)c1ncnn1-c1ncccc1F (centres unmarked) [P12, 3-(difluoromethoxy)-N-[1-[2-(3-fluoro-2-pyridyl)-1,2,4-triazol-3-yl]ethyl]-5-(trifluoromethyl) benzamide]
≥ 80%: percent effect (mortality or growth inhibition) at 200 ppm (Plutella xylostella) | percent control (mortality, anti-feedant effect or growth inhibition) at 200 ppm (Spodoptera littoralis [2]) | percent effect (mortality or growth inhibition) at 200 ppm (Diabrotica balteata) | percent effect (mortality or growth inhibition) at 200 ppm (Euschistus heros)

CC(NC(=O)c1cc(SCC(F)(F)F)cc(C(F)(F)F)c1)c1ncnn1-c1ncccn1 (centres unmarked) [P6, N-[1-(2-pyrimidin-2-yl-1,2,4-triazol-3-yl)ethyl]-3-(2,2,2-trifluoroethylsulfanyl)-5-(trifluoromethyl) benzamide]
≥ 80%: percent effect (mortality or growth inhibition) at 200 ppm (Plutella xylostella) | percent control (mortality, anti-feedant effect or growth inhibition) at 200 ppm (Spodoptera littoralis [2]) | percent effect (mortality or growth inhibition) at 200 ppm (Diabrotica balteata)

CC(NC(=O)c1cncc(OC(F)F)c1)c1ncnn1-c1ncccn1 (centres unmarked) [P24, 5-(difluoromethoxy)-N-[1-(2-pyrimidin-2-yl-1,2,4-triazol-3-yl)ethyl]pyridine-3-carboxamide]
≥ 80%: percent effect (mortality or growth inhibition) at 200 ppm (Diabrotica balteata) | mortality at 200 ppm (Myzus persicae [4]) | percent effect (mortality or growth inhibition) at 200 ppm (Euschistus heros)

CC(NC(=O)c1cc(OCC(F)(F)F)cc(C(F)(F)F)c1)c1ncnn1-c1ccc(F)cn1 (centres unmarked) [P17, N-[1-[2-(5-fluoro-2-pyridyl)-1,2,4-triazol-3-yl]ethyl]-3-(2,2,2-trifluoroethoxy)-5-(trifluoromethyl) benzamide]
≥ 80%: percent effect (mortality or growth inhibition) at 200 ppm (Plutella xylostella) | percent control (mortality, anti-feedant effect or growth inhibition) at 200 ppm (Spodoptera littoralis [2]) | percent effect (mortality or growth inhibition) at 200 ppm (Diabrotica balteata) | percent effect (mortality or growth inhibition) at 200 ppm (Euschistus heros)

CC(NC(=O)c1cc(SCC(F)(F)F)cc(C(F)(F)F)c1)c1ncnn1-c1ccccn1 (centres unmarked) [P9, N-[1-[2-(2-pyridyl)-1,2,4-triazol-3-yl]ethyl]-3-(2,2,2-trifluoroethylsulfanyl)-5-(trifluoromethyl) benzamide]
≥ 80%: percent effect (mortality or growth inhibition) at 200 ppm (Plutella xylostella) | percent effect (mortality or growth inhibition) at 200 ppm (Diabrotica balteata)

CC(NC(=O)c1cc(SCC(F)(F)F)cc(C(F)(F)F)c1)c1ncnn1-c1ccc(F)cn1 (centres unmarked) [P16, N-[1-[2-(5-fluoro-2-pyridyl)-1,2,4-triazol-3-yl]ethyl]-3-(2,2,2-trifluoroethylsulfanyl)-(trifluoromethyl) benzamide]
≥ 80%: percent effect (mortality or growth inhibition) at 200 ppm (Plutella xylostella) | percent control (mortality, anti-feedant effect or growth inhibition) at 200 ppm (Spodoptera littoralis [2]) | percent effect (mortality or growth inhibition) at 200 ppm (Diabrotica balteata)

CC(NC(=O)c1cc(OC(F)F)cc(C(F)(F)F)c1)c1ncnn1-c1ccc(F)cn1 (centres unmarked) [P15, 3-(difluoromethoxy)-N-[1-[2-(5-fluoro-2-pyridyl)-1,2,4-triazol-3-yl]ethyl]-5-(trifluoromethyl) benzamide]
≥ 80%: mortality at 12 ppm (Myzus persicae [1]) | percent effect (mortality or growth inhibition) at 200 ppm (Plutella xylostella) | percent control (mortality, anti-feedant effect or growth inhibition) at 200 ppm (Spodoptera littoralis [2]) | percent effect (mortality or growth inhibition) at 200 ppm (Diabrotica balteata) | percent effect (mortality, anti-feeding or growth inhibition) at 12.5 ppm (Spodoptera littoralis [3]) | percent effect (mortality or growth inhibition) at 200 ppm (Euschistus heros)

CC(NC(=O)c1cc(OCC(F)(F)F)cc(C(F)(F)F)c1)c1ncnn1-c1ncccn1 (centres unmarked) [P7, N-[1-(2-pyrimidin-2-yl-1,2,4-triazol-3-yl)ethyl]-3-(2,2,2-trifluoroethoxy)-5-(trifluoromethyl) benzamide]
≥ 80%: mortality at 12 ppm (Myzus persicae [1]) | percent effect (mortality or growth inhibition) at 200 ppm (Plutella xylostella) | percent control (mortality, anti-feedant effect or growth inhibition) at 200 ppm (Spodoptera littoralis [2]) | percent effect (mortality or growth inhibition) at 200 ppm (Diabrotica balteata) | mortality at 200 ppm (Myzus persicae [4]) | percent effect (mortality or growth inhibition) at 200 ppm (Euschistus heros)

CC(NC(=O)c1cc(OC(F)F)cc(C(F)(F)F)c1)c1ncnn1-c1ccccn1 (centres unmarked) [P11, 3-(difluoromethoxy)-N-[1-[2-(2-pyridyl)-1,2,4-triazol-3-yl]ethyl]-5-(trifluoromethyl) benzamide]
≥ 80%: percent effect (mortality or growth inhibition) at 200 ppm (Plutella xylostella) | percent control (mortality, anti-feedant effect or growth inhibition) at 200 ppm (Spodoptera littoralis [2]) | percent effect (mortality or growth inhibition) at 200 ppm (Diabrotica balteata) | percent effect (mortality, anti-feeding or growth inhibition) at 12.5 ppm (Spodoptera littoralis [3])

CC(c1ncnn1-c1ncccn1)N(CC1CC1)C(=O)c1cc(C(F)F)cc(C(F)(F)F)c1 (centres unmarked) [P1, N-(cyclopropylmethyl)-3-(difluoromethyl)-N-[1-(2-pyrimidin-2-yl-1,2,4-triazol-3-yl)ethyl]-5-(trifluoromethyl) benzamide]
≥ 80%: mortality at 12 ppm (Myzus persicae [1]) | mortality at 200 ppm (Thrips tabaci) | percent effect (mortality or growth inhibition) at 200 ppm (Plutella xylostella) | percent control (mortality, anti-feedant effect or growth inhibition) at 200 ppm (Spodoptera littoralis [2]) | percent effect (mortality or growth inhibition) at 200 ppm (Diabrotica balteata) | percent effect (mortality or growth inhibition) at 200 ppm (Euschistus heros)

CC(NC(=O)c1cc(OCC(F)(F)F)cc(C(F)(F)F)c1)c1ncnn1-c1ccccn1 (centres unmarked) [P10, N-[1-[2-(2-pyridyl)-1,2,4-triazol-3-yl]ethyl]-3-(2,2,2-trifluoroethoxy)-5-(trifluoromethyl) benzamide]
≥ 80%: percent effect (mortality or growth inhibition) at 200 ppm (Plutella xylostella) | percent control (mortality, anti-feedant effect or growth inhibition) at 200 ppm (Spodoptera littoralis [2]) | percent effect (mortality or growth inhibition) at 200 ppm (Diabrotica balteata) | percent effect (mortality or growth inhibition) at 200 ppm (Euschistus heros)

CC(NC(=O)c1cncc(OC(F)F)c1)c1ncnn1-c1ncccc1F (centres unmarked) [P22, 5-(difluoromethoxy)-N-[1-[2-(3-fluoro-2-pyridyl)-1,2,4-triazol-3-yl]ethyl]pyridine-3-carboxamide]
≥ 80%: percent effect (mortality or growth inhibition) at 200 ppm (Plutella xylostella)

CC(NC(=O)c1cc(SCC(F)(F)F)cc(C(F)(F)F)c1)c1ncnn1-c1ncccc1F (centres unmarked) [P13, N-[1-[2-(3-fluoro-2-pyridyl)-1,2,4-triazol-3-yl]ethyl]-3-(2,2,2-trifluoroethylsulfanyl)-5-(trifluoromethyl) benzamide]
≥ 80%: percent effect (mortality or growth inhibition) at 200 ppm (Diabrotica balteata)

CC(NC(=O)c1cc(OC(F)F)cc(C(F)(F)F)c1)c1ncnn1-c1ncccn1 (centres unmarked) [P8, 3-(difluoromethoxy)-N-[1-(2-pyrimidin-2-yl-1,2,4-triazol-3-yl)ethyl]-5-(trifluoromethyl) benzamide]
≥ 80%: mortality at 12 ppm (Myzus persicae [1]) | mortality at 200 ppm (Thrips tabaci) | percent effect (mortality or growth inhibition) at 200 ppm (Plutella xylostella) | percent control (mortality, anti-feedant effect or growth inhibition) at 200 ppm (Spodoptera littoralis [2]) | percent effect (mortality or growth inhibition) at 200 ppm (Diabrotica balteata) | percent effect (mortality, anti-feeding or growth inhibition) at 12.5 ppm (Spodoptera littoralis [3]) | mortality at 200 ppm (Myzus persicae [4]) | percent effect (mortality or growth inhibition) at 200 ppm (Euschistus heros)
